Source: patent publication US12102685B2, “Immodulator peptides covalently modified with small molecules” (priority 2020, dated 2024)

Test system: burn wound length
Assay: Post-burn wound healing study (x8A)
Type: in vivo, rats
Conditions: burn-group treatment as labelled (4 mg/kg), then vehicle weeks 2-6
Experimental: Experiment x8A. Male rats treated with 4 mg/kg nephrilin peptide IM3N1 for 2 weeks in Example 5 were subsequently treated 3× weekly (Mon-Wed-Fri) for 4 weeks with vehicle (n=12) or with 1 mg/kg IM3vlp peptide (n=12) by subcutaneous bolus injection (200 uL volume). Longitudinal wound length between the hairlines was measured at 6 weeks, and this value was corrected for nose-to-ear length and width of each animal. The mean resulting value (in arbitrary units) is shown below.

RGVTEDYLRLETLVQKVVSKGFYKKKQCRPSKGRKRGFCW [IM3N1]
corrected longitudinal wound length at 6 weeks: 131.3 ± 18.6 arbitrary units
